From patent publication US11859252B2, “Diagnostic and therapeutic methods for cancer” (Genentech, Inc., priority 2017, dated 2024)
“Also recorded” adds a separate entry of the source.

Columns and labels:
[1] = system: 322 cell lines (pancreas, lung, colorectal, skin, ovary and blood); assay: 322 cell line screen, AZ-628 and cobimetinib single agents and co-dilution; format: cell-based
Experimental: (§1) Compounds were screened in nine-point dose response using a three-fold dilution. Cells were seeded into 384-well plates 24 hours prior to compound addition. Cells were then incubated with compound for 72 hours or 120 hours before assaying viability (CellTiter-Glo, Promega). Assays were performed in biological triplicate. Cells were incubated (37° C., 5% CO2) in RPMI-1640, 2.5% FBS (72 hour assay) or 5% FBS (120 hour assay), and 2 mM glutamine throughout the assay. The reported IC50 and mean viability metrics are as follows: IC50 is the dose at which the estimated inhibition is 50% relative to untreated wells (i.e., absolute IC50). Mean viability is equivalent to the area under the log-dose/viability curve divided by the total number of tested doses.
(§2) For combination synergy studies, cells were plated in 384-well plates (Corning) and treated with varying concentrations of compound, either alone or in combination for 72 hours. Cell viability was determined using CellTiter-Glo Luminescent Cell Viability Assay (Promega, G7573). Synergistic effects were determined using the Bliss independence analysis methods (Greco et al. Pharmacol. Rev. 47: 331-385, 1995; Chou and Talalay. Adv. Enzyme Regul. 22:27-55, 1984; Chou. Cancer Res. 70: 440-446, 2010; Bliss. Ann. Appl. Biol. 25: 31, 1939).

[2] = system: A549 cells; assay: Clonogenic (colony growth) assay; format: cell-based
Experimental: (§3) Cells were plated in duplicate in 6-well plates at 10,000 cells/well, allowed to attach overnight and treated for 8 days with the indicated compounds. Media with appropriate compounds was replenished every 72 hours. At 8 days cells were rinsed once with PBS, fixed and stained with crystal violet solution (Sigma Aldrich, HT90132) for 20 minutes and washed with water.

[3] = system: SW48 isogenic cell line; assay: SW48 isogenic KRAS knock-in cells, crystal violet and pERK Western blot; format: cell-based; details: AZ-628 starting at 0.1 μM, cobimetinib 250 nM; FIGS. 6F-6G
Experimental: as §3
(§4) Cells lysed in lysis buffer (0.5% NP40, 20 mM Tris, pH 7.5, 137 mM NaCl, 10% glycerol, 1 mM EDTA) plus protease inhibitor mixture-complete mini (Roche Applied Science, 11836170001) and phosphatase inhibitor mix (Thermo, 78426). Lysates were centrifuged at 15,000 rpm for 10 minutes and the protein concentration determined using BCA (Thermo, 23227). Equal amounts of protein were subjected to SDS-PAGE NuPAGE 4-12% Bis-Tris Gel (Novex, WG-1403) and transferred to nitrocellulose membrane (BioRad, 170-4159). After blocking in blocking buffer (Li-Cor, 927-40000), membranes were incubated with the indicated primary antibodies and analyzed either by the addition of secondary antibodies IRDye 680LT Goat anti-Mouse IgG (H+L) (Li-Cor, 926-68050) or IRDye 800CW goat anti-Rabbit IgG (H+L) (Li-Cor, 926-32211). The membranes were visualized on the LiCor Odyssey CLx Scanner.

[4] = system: NRAS mutant melanoma cell line; assay: Viability of NRAS mutant melanoma versus BRAF-V600E and wild-type lines; format: cell-based
Experimental: Compounds were screened in nine-point dose response using a three-fold dilution. Cells were seeded into 384-well plates 24 hours prior to compound addition. Cells were then incubated with compound for 72 hours or 120 hours before assaying viability (CellTiter-Glo, Promega). Assays were performed in biological triplicate. […] Mean viability is equivalent to the area under the log-dose/viability curve divided by the total number of tested doses.

[5] = system: pMEK, pERK, pRSK, pAKT; assay: Immunoblot of pathway markers after compound treatment; format: cell-based; details: A549
Experimental: as §4

[6] = system: NCI-H2122 lung xenograft tumor; assay: NCI-H2122 lung xenograft tumor model
Experimental: The formulations were mixed well by vortexing before dosing. Test articles were stored in a refrigerator set to maintain a temperature range of 4° C.-7° C.
Only animals that appeared to be healthy and that were free of obvious abnormalities were used for each study. Tumor volumes were determined using digital calipers (Fred V. Fowler Company, Inc.) using the formula (L×W×W)/2. […] Mice were weighed twice a week using a standard scale.

[7] = system: DUSP6 and SPRY4; assay: RNA sequencing of MAPK transcriptional targets; format: cell-based; details: 0.1 μM AZ-628 combined with cobimetinib; six hours; four KRAS mutant lung cancer cell lines; FIG. 2C
Experimental: Cells were seeded overnight and treated with AZ-628 and cobimetinib either singly (0.1 μM) or in combination (0.1 μM each) for 6 hours. Control cells were treated with DMSO (0.2% final concentration). Total RNA was extracted as per manufacturer's protocol using RNEasy mini kits with on-column DNAse digestion (Qiagen #74106 and #79254). Quality control of samples was done to determine RNA quantity and quality prior to their processing by RNA-seq. The concentration of RNA samples was determined using NanoDrop 8000 (Thermo Scientific) and the integrity of RNA was determined by Fragment Analyzer (Advanced Analytical Technologies). 0.5 μg of total RNA was used as an input material for library preparation using TruSeq RNA Sample Preparation Kit v2 (Illumina). Size of the libraries was confirmed using 2200 TapeStation and High Sensitivity D1000 screen tape (Agilent Technologies) and their concentration was determined by qPCR based method using Library quantification kit (KAPA). The libraries were multiplexed and then sequenced on Illumina HiSeq2500 (Illumina) to generate 30M of single-end 50 base pair reads.
Reads were mapped to the hg19 genome using RefSeq gene models with the aligner GSNAP. […] Significance for linear model terms was determined by moderated t-tests as implemented in the limma software.

[8] = system: panel of 213 tumor cell lines; assay: 213 cell line panel, co-diluted combinations with pictilisib; format: cell-based; details: 3 days, FIG. 7A
Experimental: as §1, §2

[9] = system: A549 cells; assay: Apoptosis: cleaved PARP Western blot and Annexin V/propidium iodide flow cytometry; format: cell-based; details: AZ-628 combined with cobimetinib; 48 hours; FIG. 2D-2E
Experimental: as §4

Question: Which “association of combination sensitivity with KRAS-G13D” value ([1]; AZ-628 and cobimetinib, FIGS. 6A-6C) does the source give for `Cc1ccc(NC(=O)c2cccc(C(C)(C)C#N)c2)cc1Nc1ccc2ncn(C)c(=O)c2c1` [AZ-628] here?
Answer: significant association between sensitivity to the RAF plus MEK inhibitor combination and presence of the G13D mutation; also recorded: KRAS-G13D mutant cell lines are more sensitive to the combination of RAF and MEK inhibition

Question: And the “synergy score (positive Bliss excess) with cobimetinib by genotype” value ([1]; co-dilution with cobimetinib, 3 days, FIG. 5A)?
Answer: Significantly higher synergy scores were observed in KRAS and NRAS mutant cell lines compared to either BRAF-V600 mutants or wild-type; also recorded: greater synergy in RAS mutant (G12/G13/Q61) cell lines, and a subset of RAS/RAF wild-type cell lines relative to BRAF-V600 cell lines

Question: And the “single-agent effect on cell growth” value ([2]; 8-day clonogenic, 50-100 nM cobimetinib, 100 nM AZ-628)?
Answer: had little effect on cell growth on their own

Question: What about the “synergy with cobimetinib in colony formation” value ([2]; 8 days, crystal violet, FIG. 2F, 5E) of the same compound?
Answer: marked synergy

Question: What about the “synergy with cobimetinib by KRAS knock-in” value [3] of the same compound?
Answer: displayed greater synergy than KRAS-G12D and KRAS-G12C knock-in cells; also recorded: greater in KRAS-G13D mutant SW48 cells compared to KRAS-G12D or KRAS-G12C mutant SW48 cells

Question: What about the “effect on mean viability, NRAS mutant vs BRAF-V600E” value ([4]; FIG. 8A) of the same compound?
Answer: approximately equivalent effects on mean viability

Question: What about the “cell viability and 1050, NRAS mutant vs BRAF-V600E” value ([4]; separate study, FIGS. 8C and 8D) of the same compound?
Answer: had an equivalent effect in NRAS mutant and BRAF-V600E mutant cell lines

Question: And the “pMEK accumulation and signaling to ERK” value ([5]; AZ-628 combined with pictilisib, 24 hours, FIG. 7G)?
Answer: prevent the accumulation of pMEK and abrogate downstream signaling to ERK

Question: And the pAKT levels ([5]; AZ-628 in combination with cobimetinib, FIG. 2B)?
Answer: little observed impact on pAKT levels

Question: And the “MAPK pathway output (pMEK, pERK, pRSK)” value ([5]; RAF inhibitor 0.1-10 μM with or without fixed dose cobimetinib, 24 hours, FIG. 2B)?
Answer: only in combination with cobimetinib effectively inhibited MAPK pathway output

Question: What about the “tumor growth, combination with cobimetinib” value ([6]; NCI-H2122, AZ-628+GDC-0973, FIG. 3A) of the same compound?
Answer: robust combination effect

Question: What about the “tolerability / body weight” value ([6]; NCI-H2122 xenograft mice, combination with cobimetinib, FIG. 3B) of the same compound?
Answer: well tolerated in the mice, resulting in little or minimal changes in body weight post-treatment

Question: What about the “downregulation of DUSP6 and SPRY4” value [7] of the same compound?
Answer: downregulation of these genes was more profound than expected if the effect of combining the two single agents was merely additive

Question: And the “synergy (positive Bliss excess) with pictilisib” value [8]?
Answer: large general increased synergy in the AZ-628/pictilisib combination compared to the cobimetinib/pictilisib combination; also recorded: synergizes with pan-PI3K inhibitor, pictilisib (GDC-0941)

Question: What about the induction of apoptosis [9] of the same compound?
Answer: significant induction of cell apoptosis; also recorded: increased cleaved PARP
